MIC data for five molecules are collected here from US11767341B2, “Lincosamide antibiotics and uses thereof” (President and Fellows of Harvard College, priority 2017, dated 2023).

Converted amounts (≈) assume the structure as drawn. Where two headings read alike, the source gives them in different places. Some results are limits rather than exact numbers.

Assay in all cases: MIC determination
What all share (format): cell-based

Assay [1] has as its system S. pyogenes MMX 946 Macrolide-Resistant. The settings on record: Streptococcus pyogenes.
Assay [2] deals with S. aureus MP-549 msr(a) USA 300. The settings on record: Staphylococcus aureus, USA300, S. aureus MP-549 msr(a) USA 300.
In assay [3] the test system is E. coli MP-74 LptD mutant. The note with it: Escherichia coli.
The subject of the next assay is S. aureus BAA 977 iErmA. The settings on record: Staphylococcus aureus, BAA977.
Another assay relates to S. aureus ATCC 29213. The settings on record: Staphylococcus aureus, ATCC29213, S. aureus ATCC 29213; read-out: MIC.
In assay [4] the test system is S. pneumoniae MMX 3031 cMefA. The note with it: Streptococcus pneumoniae, MMX3031CMEFA.
The subject of a further assay is S. pyogenes ATCC 19615. The settings on record: Streptococcus pyogenes, ATCC19615; S. pyogenes ATCC 19615; read-out: MIC.
The next assay relates to E. coli ATCC 25922. The note with it: Escherichia coli, ATCC25922, E. coli ATCC 25922; read-out: MIC.
Another assay concerns E. faecalis ATCC 29212. The note with it: Enterococcus faecalis.
A further assay relates to H. influenzae ATCC 49247. The note with it: Haemophilus influenzae, ATCC49247.
Another assay deals with K. pneumoniae ATCC 10031. The settings on record: Klebsiella pneumoniae, ATCC10031; K. pneumoniae ATCC 10031; read-out: MIC.
The subject of another assay is S. aureus MMX 3035 cErmA. The note with it: Staphylococcus aureus, MMX3035CERMA; S. aureus MMX 3035 cErmA; read-out: MIC.
The next assay concerns E. coli MP-9 ΔTolC. The note with it: Escherichia coli.
Assay [5] has as its system S. pneumoniae MMX 3028 cErmB. The note with it: Streptococcus pneumoniae, MMX3028CERMB.
For the next assay, the system named is S. pneumoniae ATCC 49619. The settings on record: Streptococcus pneumoniae, ATCC49619; S. pneumoniae ATCC 49619; read-out: MIC.
The test system of assay [6] is E. faecalis MMX 847 Macrolide-Resistant. The settings on record: Enterococcus faecalis, read-out: MIC.
Where [7] appears, read: S. pyogenes MMX 946 MacRes, read-out: MIC.
[8] abbreviates: S. pneumoniae MMX 3028 cErmB, read-out: MIC.
The mark [9] stands for this setting: H. influenzae ATCC 49247, read-out: MIC.

In the case of `CSC1O[C@H]([C@H](NC(=O)[C@H]2NC[C@@H]3C[C@@H](c4cccc(F)c4)CCO[C@H]32)[C@H](C)Cl)C(O)[C@@H](O)[C@H]1O` (some centres unmarked) [FSA-511077], the MIC in assay [1] (setting [7]) was 32 µg/mL (≈ 60 µM); in [2], 0.25 µg/mL (≈ 0.469 µM); in assay [3] it was 16 µg/mL (≈ 30 µM); against S. aureus BAA 977 iErmA, 0.25 µg/mL (≈ 0.469 µM); with S. aureus ATCC 29213, 0.25 µg/mL (≈ 0.469 µM); in assay [4] it was at most 0.06 µg/mL. Moreover, the MIC in the assay with S. pyogenes ATCC 19615 is at most 0.06 µg/mL; in the assay with E. coli ATCC 25922 it was above 64 µg/mL; in the assay with E. faecalis ATCC 29212 (ATCC29212, read-out: MIC) it was 0.5 µg/mL (≈ 0.938 µM); against H. influenzae ATCC 49247, 16 µg/mL (≈ 30 µM); in the assay on K. pneumoniae ATCC 10031, 8 µg/mL (≈ 15 µM); with S. aureus MMX 3035 cErmA, above 64 µg/mL. The MIC is 4 µg/mL (≈ 7.5 µM) with E. coli MP-9 ΔTolC, 8 µg/mL (≈ 15 µM) in [5] (setting [8]), at most 0.06 µg/mL in the assay on S. pneumoniae ATCC 49619 and 64 µg/mL (≈ 120 µM) in [6] (E. faecalis MMX 847 MacRes).
On to `CSC1O[C@H]([C@H](NC(=O)[C@H]2NC[C@@H]3C[C@@H](CCc4ccccc4)CCO[C@H]32)[C@H](C)Cl)C(O)[C@@H](O)[C@H]1O` (some centres unmarked) [FSA-510021], for which the MIC in assay [1] (setting [7]) was 1 µg/mL (≈ 1.84 µM); in assay [2], 0.125 µg/mL (≈ 0.23 µM); in assay [3] it was 4 µg/mL (≈ 7.36 µM); against S. aureus BAA 977 iErmA, 0.125 µg/mL (≈ 0.23 µM); in the assay with S. aureus ATCC 29213, 0.125 µg/mL (≈ 0.23 µM); in assay [4], at most 0.06 µg/mL. Besides, the MIC with S. pyogenes ATCC 19615 is at most 0.06 µg/mL; in the assay with E. coli ATCC 25922 it was 64 µg/mL (≈ 118 µM); with E. faecalis ATCC 29212 (ATCC29212, read-out: MIC) it was 0.25 µg/mL (≈ 0.46 µM); in the assay on H. influenzae ATCC 49247 (setting [9]) it was 1 µg/mL (≈ 1.84 µM); in the assay on K. pneumoniae ATCC 10031, 4 µg/mL (≈ 7.36 µM); in the assay on S. aureus MMX 3035 cErmA it was 4 µg/mL (≈ 7.36 µM). Besides, the MIC in the assay on E. coli MP-9 ΔTolC was 4 µg/mL (≈ 7.36 µM); in [5] (setting [8]) it was 4 µg/mL (≈ 7.36 µM); in the assay on S. pneumoniae ATCC 49619, at most 0.06 µg/mL; in assay [6] (E. faecalis MMX 847 MacRes) it was 4 µg/mL (≈ 7.36 µM).
With `CSC1O[C@H]([C@H](NC(=O)[C@H]2NC[C@@H]3C[C@H](c4ccc(C#N)cc4)CCO[C@H]32)[C@H](C)Cl)C(O)[C@@H](O)[C@H]1O` (some centres unmarked) [FSA-512081b], the MIC in assay [1] is 32 µg/mL (≈ 59.3 µM); in assay [2], 1 µg/mL (≈ 1.85 µM); in [3], 32 µg/mL (≈ 59.3 µM); against S. aureus BAA 977 iErmA, 1 µg/mL (≈ 1.85 µM); in the assay with S. aureus ATCC 29213, 0.25 µg/mL (≈ 0.463 µM); in assay [4] it was 0.12 µg/mL (≈ 0.222 µM). Further, the MIC in the assay with S. pyogenes ATCC 19615 is at most 0.06 µg/mL; with E. coli ATCC 25922, 128 µg/mL (≈ 237 µM); in the assay on E. faecalis ATCC 29212 (ATCC29212, read-out: MIC), 1 µg/mL (≈ 1.85 µM); against H. influenzae ATCC 49247 it was 16 µg/mL (≈ 29.6 µM); with S. aureus MMX 3035 cErmA, 128 µg/mL (≈ 237 µM); in the assay on E. coli MP-9 ΔTolC, 8 µg/mL (≈ 14.8 µM). Further, the MIC was 16 µg/mL (≈ 29.6 µM) in [5], at most 0.06 µg/mL in the assay with S. pneumoniae ATCC 49619 and 128 µg/mL (≈ 237 µM) in [6] (E. faecalis MMX 847 MacRes).
As for `CSC1O[C@H]([C@H](NC(=O)[C@H]2NC[C@@H]3CC=CCO[C@H]32)[C@H](C)Sc2ccc(-c3cccnc3)cc2)C(O)[C@@H](O)[C@H]1O` (some centres unmarked) [FSA-213061], the MIC in assay [1] (S. pyogenes MMX 946 Macrolide-Resistant (MacRes), read-out: MIC) was determined as 4 µg/mL (≈ 6.81 µM); in assay [2], 0.5 µg/mL (≈ 0.851 µM); in [3] it was 8 µg/mL (≈ 13.6 µM); in the assay with S. aureus BAA 977 iErmA, 0.25 µg/mL (≈ 0.425 µM); with S. aureus ATCC 29213, 0.25 µg/mL (≈ 0.425 µM); in [4], 0.125 µg/mL (≈ 0.213 µM). The MIC is at most 0.06 µg/mL with S. pyogenes ATCC 19615; above 64 µg/mL in the assay with E. coli ATCC 25922; 16 µg/mL (≈ 27.2 µM) with E. faecalis ATCC 29212 (ATCC29212, read-out: MIC); 32 µg/mL (≈ 54.4 µM) with K. pneumoniae ATCC 10031; 64 µg/mL (≈ 109 µM) in the assay on S. aureus MMX 3035 cErmA; 8 µg/mL (≈ 13.6 µM) against E. coli MP-9 ΔTolC. For the same molecule, the results for the MIC (in assay [5] (setting [8]); in the assay on S. pneumoniae ATCC 49619; in assay [6] (E. faecalis MMX 847 Macrolide-Resistant (MacRes))) were 8 µg/mL (≈ 13.6 µM), at most 0.06 µg/mL and above 64 µg/mL, respectively.
As for `COc1ccc([C@H]2CCO[C@@H]3[C@H](CN[C@@H]3C(=O)N[C@H]([C@H](C)Cl)[C@H]3OC(SC)[C@H](O)[C@H](O)C3O)C2)cc1` (some centres unmarked) [FSA-512080b], the MIC was 16 µg/mL (≈ 29.4 µM) in assay [1] (setting [7]); 0.5 µg/mL (≈ 0.917 µM) in [2]; 8 µg/mL (≈ 14.7 µM) in [3]; 0.25 µg/mL (≈ 0.459 µM) with S. aureus BAA 977 iErmA; 0.12 µg/mL (≈ 0.22 µM) with S. aureus ATCC 29213; at most 0.06 µg/mL in [4]. Besides, the MIC with S. pyogenes ATCC 19615 is at most 0.06 µg/mL; with E. coli ATCC 25922, 128 µg/mL (≈ 235 µM); in the assay with E. faecalis ATCC 29212 (ATCC29212), 0.5 µg/mL (≈ 0.917 µM); in the assay on H. influenzae ATCC 49247 (setting [9]) it was 16 µg/mL (≈ 29.4 µM); with S. aureus MMX 3035 cErmA, 64 µg/mL (≈ 117 µM); against E. coli MP-9 ΔTolC, 4 µg/mL (≈ 7.34 µM). In addition, the MIC in assay [5] (setting [8]) was 4 µg/mL (≈ 7.34 µM); in the assay on S. pneumoniae ATCC 49619, at most 0.06 µg/mL; in [6] (E. faecalis MMX 847 MacRes) it was 64 µg/mL (≈ 117 µM).
